Results from ChEMBL document CHEMBL1128846, “Synthesis and pharmacological activity of conformationally restricted, acetylenic retinoid analogs” (Bioorg Med Chem Lett, 1995).

Columns and labels:
[1] = system: Mus musculus; assay: In vivo inhibition of TPA-induced ornithine decarboxylase (ODC) activity in hairless mouse skin; format: functional
[2] = biological target: T1, Retinoic acid receptor RXR-alpha (Homo sapiens, UniProt P19793); assay: Transcriptional activation of retinoid X receptor RXR alpha; not active
T1 sequence (P19793 whole entry): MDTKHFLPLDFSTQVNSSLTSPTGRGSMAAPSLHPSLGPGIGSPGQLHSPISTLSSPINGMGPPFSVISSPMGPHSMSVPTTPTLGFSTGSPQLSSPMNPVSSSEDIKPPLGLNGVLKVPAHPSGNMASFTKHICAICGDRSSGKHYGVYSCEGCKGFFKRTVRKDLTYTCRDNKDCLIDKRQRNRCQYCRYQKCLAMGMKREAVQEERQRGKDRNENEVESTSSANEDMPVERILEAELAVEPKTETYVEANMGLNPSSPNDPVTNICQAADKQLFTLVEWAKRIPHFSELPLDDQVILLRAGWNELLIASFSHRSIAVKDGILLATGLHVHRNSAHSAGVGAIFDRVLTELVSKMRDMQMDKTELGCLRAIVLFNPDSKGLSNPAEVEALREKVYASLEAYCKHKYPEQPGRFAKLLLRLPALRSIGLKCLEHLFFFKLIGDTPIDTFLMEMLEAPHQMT

[3] = biological target: T2, Retinoic acid receptor alpha (Homo sapiens, UniProt P10276); assay: Transcriptional activation of retinoic acid receptor RAR alpha
T2 sequence (P10276 whole entry): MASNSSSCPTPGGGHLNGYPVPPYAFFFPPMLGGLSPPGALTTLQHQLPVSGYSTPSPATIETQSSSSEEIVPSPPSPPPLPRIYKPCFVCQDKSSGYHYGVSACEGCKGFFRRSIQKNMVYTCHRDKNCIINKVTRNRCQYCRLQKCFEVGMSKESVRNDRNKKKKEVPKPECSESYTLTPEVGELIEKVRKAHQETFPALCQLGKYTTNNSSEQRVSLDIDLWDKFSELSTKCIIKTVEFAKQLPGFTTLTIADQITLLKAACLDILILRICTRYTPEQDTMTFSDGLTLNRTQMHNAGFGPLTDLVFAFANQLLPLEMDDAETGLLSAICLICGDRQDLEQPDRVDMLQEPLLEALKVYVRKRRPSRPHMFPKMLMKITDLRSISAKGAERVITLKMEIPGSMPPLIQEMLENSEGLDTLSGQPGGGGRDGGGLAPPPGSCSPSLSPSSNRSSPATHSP

[4] = biological target: T3, Retinoic acid receptor beta (Homo sapiens, UniProt P10826); assay: (§1) Transcriptional activation of retinoic acid receptor RAR beta
T3 sequence (P10826 whole entry): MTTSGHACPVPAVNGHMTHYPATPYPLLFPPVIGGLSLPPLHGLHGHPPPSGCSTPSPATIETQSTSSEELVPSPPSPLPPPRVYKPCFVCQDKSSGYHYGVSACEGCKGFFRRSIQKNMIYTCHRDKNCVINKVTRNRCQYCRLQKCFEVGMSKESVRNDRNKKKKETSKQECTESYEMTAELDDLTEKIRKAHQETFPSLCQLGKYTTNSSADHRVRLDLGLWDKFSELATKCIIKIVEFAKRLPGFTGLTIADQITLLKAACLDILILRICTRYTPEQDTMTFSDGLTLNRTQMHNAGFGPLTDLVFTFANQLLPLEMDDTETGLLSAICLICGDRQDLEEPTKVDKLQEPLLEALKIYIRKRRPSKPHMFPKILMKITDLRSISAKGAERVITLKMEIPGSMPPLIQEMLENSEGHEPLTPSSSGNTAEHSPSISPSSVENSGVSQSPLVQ

[5] = biological target: T4, Retinoic acid receptor gamma (Homo sapiens, UniProt P13631); assay: Transcriptional activation of retinoic acid receptor RAR gamma
T4 sequence (P13631 whole entry): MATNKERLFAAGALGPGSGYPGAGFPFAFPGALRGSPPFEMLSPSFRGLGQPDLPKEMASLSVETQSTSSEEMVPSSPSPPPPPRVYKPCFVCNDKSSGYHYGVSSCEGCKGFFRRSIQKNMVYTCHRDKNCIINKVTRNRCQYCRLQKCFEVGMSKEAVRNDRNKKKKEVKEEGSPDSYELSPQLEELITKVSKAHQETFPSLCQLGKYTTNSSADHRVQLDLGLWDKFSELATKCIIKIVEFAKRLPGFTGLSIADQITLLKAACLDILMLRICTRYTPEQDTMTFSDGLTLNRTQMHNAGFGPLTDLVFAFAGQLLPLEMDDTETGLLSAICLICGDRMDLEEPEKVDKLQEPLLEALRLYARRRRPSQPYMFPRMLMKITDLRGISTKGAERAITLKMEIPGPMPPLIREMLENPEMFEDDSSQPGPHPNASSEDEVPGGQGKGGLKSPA

[6] = biological target: T4, Retinoic acid receptor gamma; assay: Transcriptional activation of retinoic acid receptor RAR gamma; not active
[7] = biological target: T3, Retinoic acid receptor beta; assay: Transcriptional activation of retinoic acid receptor RAR beta; not active
[8] = biological target: T2, Retinoic acid receptor alpha; assay: Transcriptional activation of retinoic acid receptor RAR alpha; not active
[9] = biological target: T3, Retinoic acid receptor beta; assay: as §1; remark: listed apart in the source

| SMILES | IC80 [1] [nmol] | EC50 [2] [µM] | EC50 [8] [µM] | also measured |
| --- | --- | --- | --- | --- |
| CCOC(=O)c1ccc(C#C/C=C/C2=C(C)CCCC2(C)C)nc1 | 5.3 |  |  |  |
| CCOC(=O)c1ccccc1C#C/C=C/C1=C(C)CCCC1(C)C | > 1000 |  |  |  |
| CC1=C(/C=C/C#Cc2ccc(C(=O)O)cc2)C(C)(C)CCC1 | 0.46 | 10 |  | EC50 [3]: 0.598 µM; EC50 [4]: 0.002 µM; EC50 [5]: 0.01 µM |
| CC1=C(/C=C/C#Cc2cccc(C(=O)O)c2)C(C)(C)CCC1 | 890 | > 10 | > 10 | EC50 [6]: > 10 µM; EC50 [7]: > 10 µM |
| CC1=C(C#Cc2ccc3cc(C(=O)O)ccc3c2)C(C)(C)CCC1 | 215 | > 10 | > 10 | EC50 [9]: 0.93 µM; EC50 [4]: 0.355 µM |
| CCOC(=O)c1ccc(C#C/C=C/C2=C(C)CCCC2(C)C)o1 | > 300 |  |  |  |
| CCOC(=O)c1cccc(C#C/C=C/C2=C(C)CCCC2(C)C)c1 | > 1000 |  |  |  |
| C/C(=C\c1ccc(C(=O)O)cc1)c1ccc2c(c1)C(C)(C)CCC2(C)C |  | 10 |  |  |
| CCOC(=O)c1ccc(C#C/C=C/C2=C(C)CCCC2(C)C)cc1 | 1.3 |  |  |  |
| CCOC(=O)c1ccc(C#C/C=C/C2=C(C)CCCC2(C)C)s1 | 30 |  |  |  |
| CC1=C(/C=C/C#Cc2ccccc2C(=O)O)C(C)(C)CCC1 | > 1000 | > 10 | > 10 | EC50 [6]: > 10 µM; EC50 [7]: > 10 µM |
| CC1=C(/C=C/C#Cc2ccc(C(=O)O)cn2)C(C)(C)CCC1 | 14.8 |  | > 10 | EC50 [4]: > 0.005 µM; EC50 [5]: > 0.015 µM |
| CCOC(=O)c1ccc2cc(C#CC3=C(C)CCCC3(C)C)ccc2c1 | 131 |  |  |  |
